SMILES strings stand for the structures.

For three compounds, Km results are on record in paper PMC10870048, “2,4‐Dihydroxybenzoic Acid, a Novel SA Derivative, Controls Plant Immunity via UGT95B17‐Mediated Glucosylation: A Case Study in Camellia Sinensis” (Advanced Science, 2023).

The assay deals with T1, UGT95B17.
T1 construct: full-length ORF in pGEX-4T-1 (N-terminal GST tag of vector)
Kind of assay: UDP-Glo glycosyltransferase assay. It counts as biochemical, Camellia sinensis. Conditions: UDP-glucose co-substrate, pH 7.5, 25 °C, 40 min; read-out: apparent KM.
For the compound `O=C(O)c1cccc(O)c1O` [2,3-DHBA], the Km stood at 3.31 ± 0.58 µM.

On to `O=C(O)c1ccc(O)cc1O` [2,4-DHBA], for which the Michaelis constant (Km) was found to be 0.81 ± 0.26 µM. Turning to `O=C(O)c1cc(O)ccc1O` [2,5-DHBA], the Km stood at 0.31 ± 0.11 µM.

The term Km denotes the concentration of substrate that gives half-maximal velocity.
